Columns and labels:
healthy females = experiment: Phase 1 FIH study: modified Drug Effect Questionnaire (DEQ-High); format: in vivo, human; set-up: mean time to peak DEQ-High score: dose or concentration left out as unconfirmed
Method: The study was a double-blind, randomized, placebo-controlled Phase 1 single ascending dose study in up to 6 cohorts in healthy females. Eligibility was assessed during a screening period of up to 28 days prior to enrollment. For the treatment period, subjects were admitted to the clinical research unit (CRU) one day prior to the dosing (Day −1). On Day 1, all subjects will received the assigned SC dose of RE104 HCl or placebo in a fed state (after domiciling overnight and consuming a planned evening meal on Day −1 and morning meal on Day 1 while at the CRU). Subjects were allowed to select snacks from a planned menu from 4 hours following dosing. Subjects were discharged from the clinic on Day 2 (−24 hours post-dose) after all required study procedures were completed and if deemed medically fit. Subjects returned to the clinic on Day 10 (±2 days) for a follow up visit.
The Drug Effect Questionnaire (DEQ) Feel/High is widely used in studies of acute subjective response to a variety of substances, to assess two key aspects of subjective experience: (1) the strength of substance effects and (2) desirability of substance effects (Morean et al., 2013). The modified DEQ assesses the extent to which subjects (1) feel any substance effect(s) and (2) feel high. This version of the DEQ includes the following items: “Do you feel a drug effect right now?” (FEEL); “Are you high right now?” (HIGH). FIG. 2 sets out the modified DEQ that was used.
The modified DEQ was used as an 11-point numeric rating scale (0-10) administered by a qualified staff member. The subjects were asked to verbally respond to indicate how strongly they feel the drug effect and how high they feel on the scale of 0-10 after being administered the study drug (Kollltveit et al., 2020).

[1] = Prodrug cleavage in rat plasma; format: in vitro ADME; settings: 37° C.
Method: Mean values from 3 replicate assays are reported. See the Supplemental Methods for additional details.
Triplicate aliquots (50 μL) of each spiked plasma solution were immediately added to 200 μL of ice-cold methanol/acetonitrile solution (50:50 v/v) containing the internal standards to generate time zero samples. Spiked plasma solutions were incubated at 37° C. in an orbital shaker set to 75 rpm, and 50-μL samples were taken in triplicate after 30 minutes and 1, 2, and 4 hours of incubation. Each sample was immediately added to 200 μL ofice-cold methanol/acetonitrile solution containing the internal standard(s) to terminate the reaction. Samples were mixed by vortex and then stored at −80° C. until analysis.
Calibration standards were prepared in plasma for each species and analyzed in batches by LC-MS/MS. Sample batches consisted of 3 replicates of a system suitability standard (containing the analyte and internal standard), the appropriate calibration standards in ascending order including a blank sample without internal standard, a zero sample (with internal standard), and at least 6 nonzero standards and the assay samples, followed by the 3 replicates of the system suitability sample.

Structure (SMILES): CC(C)N(CCc1c[nH]c2cccc(OC(=O)CCCC(=O)O)c12)C(C)C [RE104]
- mean time to peak DEQ-High score (healthy females): 1.1 h
- Mean Experience Duration (healthy females; 33 mg): 3.7 h
- DEQ-High score, all participants (healthy females; 4 hours post dose): 51
- completeness of conversion [1]: > 95%
- time of conversion to 4-OH-DiPT [1]: < 30 min
